Experimental findings from ChEMBL document CHEMBL4130519, “Resorcinol-Based Grp94-Selective Inhibitors” (ACS Med Chem Lett, 2017) are described below.

One series deals with RPMI-8226. Description: Growth inhibition of human RPMI8226 cells after 72 hrs by MTS/PMS assay. It counts as functional. Particulars: RPMI-8226, 72 h; call rule not given here.
Another series has as its target Endoplasmin (Canis lupus familiaris, UniProt P41148). Description: Displacement of FITC-GDA from recombinant canine Grp94 expressed in baculovirus infected Sf21 insect cells after 24 hrs by fluorescence polarization assay. Particulars: read-out: Kd(app). (In general: In fluorescence polarisation assays a small probe gives low polarisation when free and higher when bound to something large.)

Series [1] addresses Heat shock protein HSP 90-alpha (Homo sapiens, UniProt P07900). Description: Displacement of FITC-GDA from Hsp90alpha (unknown origin) after 24 hrs by fluorescence polarization assay. Particulars: read-out: Kd(app).
In series [2] the target is T1, Heat shock protein HSP90 (Homo sapiens, UniProt P07900+P08238). Description: Inhibition of Hsp90 in human RPMI8226 cells assessed as induction of Akt degradation at 0.75 to 7.5 uM after 24 hrs by Western blot analysis. It counts as cell-based.
The target in series [3] is T1, Heat shock protein HSP90. Description: Inhibition of Hsp90 in human RPMI8226 cells assessed as induction of Hsp70 expression at 0.75 to 7.5 uM after 24 hrs by Western blot analysis. The series is classed as cell-based.

Endoplasmin, sequence (P41148 whole entry): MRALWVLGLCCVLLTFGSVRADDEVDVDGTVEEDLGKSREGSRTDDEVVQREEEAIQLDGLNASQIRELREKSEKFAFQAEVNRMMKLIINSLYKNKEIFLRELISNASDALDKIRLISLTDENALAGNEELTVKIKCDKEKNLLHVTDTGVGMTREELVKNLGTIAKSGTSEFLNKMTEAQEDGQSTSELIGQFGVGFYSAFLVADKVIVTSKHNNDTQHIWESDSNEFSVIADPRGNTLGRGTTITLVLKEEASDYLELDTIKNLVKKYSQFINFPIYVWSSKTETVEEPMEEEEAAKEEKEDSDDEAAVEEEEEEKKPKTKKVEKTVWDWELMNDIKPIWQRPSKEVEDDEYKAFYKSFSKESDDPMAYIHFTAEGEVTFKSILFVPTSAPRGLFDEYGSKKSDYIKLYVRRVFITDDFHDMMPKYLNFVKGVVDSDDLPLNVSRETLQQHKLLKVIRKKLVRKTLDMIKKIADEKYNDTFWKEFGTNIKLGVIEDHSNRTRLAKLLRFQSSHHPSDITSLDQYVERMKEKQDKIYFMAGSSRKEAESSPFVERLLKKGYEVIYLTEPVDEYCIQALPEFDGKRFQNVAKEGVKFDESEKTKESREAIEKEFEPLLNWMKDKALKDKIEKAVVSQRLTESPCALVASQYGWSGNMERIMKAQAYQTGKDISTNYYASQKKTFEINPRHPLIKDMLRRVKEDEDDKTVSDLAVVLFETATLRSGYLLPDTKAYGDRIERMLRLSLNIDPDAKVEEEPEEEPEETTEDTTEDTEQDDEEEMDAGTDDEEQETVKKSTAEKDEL

Broadly, the GI50 is the concentration giving 50% growth inhibition. A higher GI50 goes with lower sensitivity of the cells. Molecule `COC(=O)c1c(O)cc(O)c(Cl)c1CCc1nccn1Cc1ccccc1` displayed a GI50 with RPMI-8226 of 10200 nM.
For the molecule `Cc1ccc(Sc2cc(C(=O)N3Cc4ccccc4C3)c(O)cc2O)cc1C`, the values for the Kd (at Endoplasmin; in series [1]) were 21 nM and 66 nM, respectively.
The like results for `O=C(c1cc(Sc2ccccc2)c(O)cc1O)N1Cc2ccccc2C1` were, in that order, 13 nM and 26 nM.
Consider `O=C(c1cc(Sc2ccccc2O)c(O)cc1O)N1Cc2ccccc2C1`, for which the results for the Kd (on Endoplasmin; in series [1]) were 29 nM and 65 nM, respectively.
Regarding `O=C(c1cc(Sc2ccc(Cl)cc2Cl)c(O)cc1O)N1Cc2ccccc2C1`, the Kd turned out to be 59 nM on Endoplasmin and 460 nM in series [1].
On to `Cc1ccc(Cc2cc(C(=O)N3Cc4ccccc4C3)c(O)cc2O)cc1`, for which the GI50 in the series on RPMI-8226 was determined as 2700 nM. Further, the Kd (at Endoplasmin; in series [1]) was 40 nM in each case.
For `O=C(c1cc(Sc2ccc(O)cc2)c(O)cc1O)N1Cc2ccccc2C1`, the Kd is 70 nM on Endoplasmin and 52 nM in series [1].
In the case of `O=C(c1cc(Br)c(O)cc1O)N1Cc2ccccc2C1`, the Kd at Endoplasmin was determined as 20 nM.
As to `O=C(c1cc(-c2ccccc2)c(O)cc1O)N1Cc2ccccc2C1`, the GI50 with RPMI-8226 is over 25000 nM. Moreover, the Kd (on Endoplasmin; in series [1]) was over 100000 nM in each case.
For the molecule `O=C(c1cc(N2CCc3ccccc32)c(O)cc1O)N1Cc2ccccc2C1`, the Kd at Endoplasmin was 9890 nM; in series [1] it was over 50000 nM.
As for `O=C(c1cc(Sc2cc(Cl)cc(Cl)c2)c(O)cc1O)N1Cc2ccccc2C1`, the Kd at Endoplasmin is 31 nM; in series [1] it was 29 nM.
The corresponding values for `Cc1ccc(Sc2cc(C(=O)N3Cc4ccccc4C3)c(O)cc2O)c(C)c1` are 30 nM and 70 nM.
On to `O=C(c1cc(Cc2ccc(Cl)cc2)c(O)cc1O)N1Cc2ccccc2C1`, for which the GI50 in the series with RPMI-8226 was 3000 nM. Moreover, the results for the Kd (at Endoplasmin; in series [1]) were 13 nM and 60 nM, respectively.
The corresponding values for `COC(=O)c1cc(C(=O)N2Cc3ccccc3C2)c(O)cc1O` are 13800 nM, over 10000 nM and over 10000 nM.
`O=C(c1cc(Cc2ccccc2Cl)c(O)cc1O)N1Cc2ccccc2C1`: the Kd is 60 nM at Endoplasmin and 200 nM in series [1].
Turning to `O=C(c1cc(Cc2ccccc2)c(O)cc1O)N1Cc2ccccc2C1`, in the series on RPMI-8226, growth was halved (GI50) at 3700 nM. The Kd at Endoplasmin came to 15 nM; in series [1], 66 nM.
In the series on RPMI-8226, `O=C(c1cc(Cc2ccc(F)cc2)c(O)cc1O)N1Cc2ccccc2C1` displayed a GI50 of 1400 nM. Further, the Kd on Endoplasmin stood at 8 nM; in series [1] it was 77 nM. Further, the “inhibition (INH)” value at Heat shock protein HSP90 [2] and at Heat shock protein HSP90 [3] was “Not Active” in each case.
Molecule `COc1cccc(Sc2cc(C(=O)N3Cc4ccccc4C3)c(O)cc2O)c1` registered a GI50 in the series with RPMI-8226 of 1900 nM. Besides, the Kd came to 34 nM at Endoplasmin and 37 nM in series [1].
With `CCOC(=O)c1cc(C(=O)N2Cc3ccccc3C2)c(O)cc1O`, the Kd stood at 770 nM on Endoplasmin and 3520 nM in series [1].
For the molecule `Cc1ccc(C)c(Sc2cc(C(=O)N3Cc4ccccc4C3)c(O)cc2O)c1`, the Kd on Endoplasmin worked out at 29 nM; in series [1] it was 31 nM.
`COC1=C2C[C@@H](C)C[C@H](OC)[C@H](O)[C@@H](C)/C=C(\C)[C@H](OC(N)=O)[C@@H](OC)/C=C\C=C(/C)C(=O)NC(=CC1=O)C2=O` [GELDANAMYCIN]: in the series with RPMI-8226, the GI50 amounted to 3 nM.
